In PubChem BioAssay (NCI):
“And” between values parts separate entries of the source, which are not always exact repeats. Equal values may be shown once.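 Cultured in 96-well plates, cells were exposed to test compound for 48 hours across five concentrations. GI50 marks 50% less growth. TGI: concentration producing complete growth inhibition.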

How the values were obtained:
Experiment in all cases: NCI anticancer screen, dose series, 48 h
HL-60(TB) leukemia = system: HL-60(TB) leukemia
SR leukemia = system: SR leukemia
SN12C renal = system: SN12C renal
HCT-15 colon = system: HCT-15 colon
K-562 leukemia = system: K-562 leukemia
MDA-MB-231 breast = system: MDA-MB-231 breast
SNB-75 CNS = system: SNB-75 CNS
HCC-2998 colon = system: HCC-2998 colon
DMS 273 small cell lung = system: DMS 273 small cell lung
DLD-1 colon = system: DLD-1 colon

## CCCCCCCCCCCCNC(=O)N[C@H](C(=O)N[C@H]1/C=C/CCNC(=O)/C=C/[C@H](C)NC1=O)C(C)C
HL-60(TB) leukemia
  GI50: 0.143 µM
  TGI: 13.3 µM
SR leukemia
  GI50: 0.0294 µM
  TGI: 0.958 µM
SN12C renal
  GI50: 0.184 µM
  TGI: 0.591 µM
HCT-15 colon
  GI50: 2.76 µM
  TGI: > 100 µM
K-562 leukemia
  GI50: 0.456 µM
  TGI: 15.1 µM
MDA-MB-231 breast
  GI50: 0.0709 µM
  TGI: 0.277 µM
SNB-75 CNS
  GI50: 0.0345 µM
  TGI: 0.155 µM
HCC-2998 colon
  GI50: 0.0239 µM
  TGI: 0.0562 µM

## Cc1cc(O[C@@H]2O[C@@H](C)[C@H](O)[C@@H](O)[C@H]2O)c2c3c(c(O[C@@H]4O[C@@H](C)[C@H](O)[C@@H](O)[C@H]4O)cc2c1)C(=O)c1c(O)cccc1C3=O
HL-60(TB) leukemia
  GI50: > 30 µM
  TGI: > 30 µM
SR leukemia
  GI50: > 30 µM
  TGI: > 30 µM
SN12C renal
  GI50: > 30 µM
  TGI: > 30 µM
HCT-15 colon
  GI50: > 30 µM
  TGI: > 30 µM
K-562 leukemia
  GI50: > 30 µM
  TGI: > 30 µM
MDA-MB-231 breast
  GI50: > 30 µM
  TGI: > 30 µM
SNB-75 CNS
  GI50: > 30 µM
  TGI: > 30 µM
HCC-2998 colon
  GI50: > 30 µM
  TGI: > 30 µM

## CCNC(=O)Oc1ccc(/C(=C(\C)c2ccc(Cl)cc2)c2ccc(OCCN(CC)CC)cc2)cc1
HL-60(TB) leukemia
  GI50: 1.79 µM
  TGI: 4.37 µM
SR leukemia
  GI50: 2.55 µM
  TGI: 10.7 µM
SN12C renal
  GI50: 4.42 µM
  TGI: 16.1 µM
HCT-15 colon
  GI50: 2.21 µM
  TGI: 7.04 µM
K-562 leukemia
  GI50: 2.18 µM
  TGI: 5.37 µM
MDA-MB-231 breast
  GI50: 3.02 µM
  TGI: 8.17 µM
SNB-75 CNS
  GI50: 2.45 µM
  TGI: 18.4 µM
HCC-2998 colon
  GI50: 4.39 µM
  TGI: 16.3 µM

## CN(C)CCCOc1ccc(/C=C2/CCC/C(=C/c3ccc(OCCCN(C)C)cc3)C2=O)cc1
HL-60(TB) leukemia
  TGI: 3.65 µM
SN12C renal
  TGI: 2.96 µM
HCT-15 colon
  TGI: 2.5 µM
DMS 273 small cell lung
  TGI: 2.96 µM
K-562 leukemia
  TGI: 1.24 µM
DLD-1 colon
  TGI: 3.21 µM
SNB-75 CNS
  TGI: 2.61 µM
HCC-2998 colon
  TGI: 3.12 µM

## O=C(Nc1ccn(C2CC(I)C(COC(c3ccccc3)(c3ccccc3)c3ccccc3)O2)c(=O)n1)c1ccccc1 (stereo not given)
HL-60(TB) leukemia
  TGI: 21.5 µM
SR leukemia
  TGI: 2.15 µM
SN12C renal
  TGI: 12.6 µM
HCT-15 colon
  TGI: 21.5 µM
K-562 leukemia
  TGI: 21.5 µM
MDA-MB-231 breast
  TGI: 17.9 µM
SNB-75 CNS
  TGI: 9.61 µM
HCC-2998 colon
  TGI: 21.5 µM

## COc1ccc(NC(=S)C#N)cc1
HL-60(TB) leukemia
  TGI: > 100 µM
SR leukemia
  TGI: > 100 µM
SN12C renal
  TGI: > 100 µM
HCT-15 colon
  TGI: > 100 µM
K-562 leukemia
  TGI: > 100 µM
MDA-MB-231 breast
  TGI: > 100 µM
SNB-75 CNS
  TGI: > 100 µM
HCC-2998 colon
  TGI: > 100 µM

## Cc1cc2nc3c(=O)[nH]c(=O)nc-3n(CC(O)C(O)C(O)CO)c2cc1N (stereo not given)
HL-60(TB) leukemia
  TGI: > 100 µM
SN12C renal
  TGI: > 100 µM
HCT-15 colon
  TGI: > 100 µM
DMS 273 small cell lung
  TGI: > 100 µM
K-562 leukemia
  TGI: > 100 µM
SNB-75 CNS
  TGI: > 100 µM
HCC-2998 colon
  TGI: > 100 µM

## CC12CCCC(C#N)(C1)OC2=O (stereo not given)
HL-60(TB) leukemia
  TGI: > 100 µM
SR leukemia
  TGI: > 100 µM
SN12C renal
  TGI: > 100 µM
DMS 273 small cell lung
  TGI: > 100 µM
K-562 leukemia
  TGI: > 100 µM
DLD-1 colon
  TGI: > 100 µM
SNB-75 CNS
  TGI: > 100 µM

## COc1cc(-c2cc(-c3cccs3)c(C#N)c(N3CCOCC3)n2)cc(OC)c1OC
HL-60(TB) leukemia
  GI50: 3.12 µM
  TGI: 29.7 µM
SR leukemia
  GI50: 1.93 µM
  TGI: 8.11 µM
SN12C renal
  GI50: > 100 µM
  TGI: > 100 µM
HCT-15 colon
  GI50: 3.09 µM
  TGI: > 100 µM
K-562 leukemia
  GI50: 3.8 µM
  TGI: > 100 µM
MDA-MB-231 breast
  GI50: 5.83 µM
  TGI: > 100 µM
SNB-75 CNS
  GI50: 10 µM
  TGI: > 63 µM
HCC-2998 colon
  GI50: 21.7 µM
  TGI: > 100 µM

## CC(C)n1nc(C#Cc2cccc(O)c2)c2c(N)ncnc21
HL-60(TB) leukemia
  GI50: 0.832 µM and 0.217 µM
  TGI: 10.8 µM and 20.2 µM
SR leukemia
  GI50: 1.17 µM and 0.573 µM
  TGI: 23.4 µM and 11.4 µM
SN12C renal
  GI50: 0.894 µM and 0.532 µM
  TGI: 5.09 µM and 4.76 µM
HCT-15 colon
  GI50: 1.35 µM and 0.906 µM
  TGI: 21.6 µM and 10.1 µM
K-562 leukemia
  GI50: 0.0636 µM and 0.0283 µM
  TGI: 50 µM and > 100 µM
MDA-MB-231 breast
  GI50: 0.508 µM and 0.0966 µM
  TGI: 2.07 µM and 2.15 µM
SNB-75 CNS
  GI50: 0.161 µM and 0.442 µM
  TGI: 1.12 µM and 2.09 µM
HCC-2998 colon
  GI50: 2.4 µM and 4.46 µM
  TGI: 27.4 µM and 21.5 µM

## COc1ccc(/C(=C/c2ccc3ccccc3c2)c2nn[nH]n2)cc1OC
HL-60(TB) leukemia
  GI50: 2.56 µM
  TGI: 6.94 µM
SR leukemia
  GI50: 2.23 µM
  TGI: > 100 µM
SN12C renal
  GI50: 9.97 µM
  TGI: > 100 µM
HCT-15 colon
  GI50: 2.92 µM
  TGI: > 100 µM
K-562 leukemia
  GI50: 0.678 µM
  TGI: > 100 µM
MDA-MB-231 breast
  GI50: 12.5 µM
  TGI: > 100 µM
SNB-75 CNS
  GI50: 2.51 µM
  TGI: > 100 µM
HCC-2998 colon
  GI50: 5.2 µM
  TGI: 82.9 µM

## NC(=O)c1cc(I)ccc1NC(=O)/C=C/c1ccccc1Cl
HL-60(TB) leukemia
  GI50: 0.158 µM
  TGI: 0.631 µM
SR leukemia
  GI50: 0.26 µM
  TGI: 0.952 µM
SN12C renal
  GI50: 1.32 µM
  TGI: 36.7 µM
HCT-15 colon
  GI50: 0.657 µM
  TGI: > 68.3 µM
K-562 leukemia
  GI50: 0.313 µM
  TGI: 3.43 µM
MDA-MB-231 breast
  GI50: 1.63 µM
  TGI: 31.9 µM
SNB-75 CNS
  GI50: 0.995 µM
  TGI: 25.3 µM
HCC-2998 colon
  GI50: 0.969 µM
  TGI: 5.61 µM

## Clc1ccc(-c2nc3c(-c4ccccc4)nc(-c4ccccc4)cn3c2-c2ccc(Cl)cc2)cc1
HL-60(TB) leukemia
  GI50: > 100 µM
  TGI: > 100 µM
SR leukemia
  GI50: > 100 µM
  TGI: > 100 µM
SN12C renal
  GI50: > 100 µM
  TGI: > 100 µM
HCT-15 colon
  GI50: > 100 µM
  TGI: > 100 µM
K-562 leukemia
  GI50: > 100 µM
  TGI: > 100 µM
MDA-MB-231 breast
  GI50: > 100 µM
  TGI: > 100 µM
SNB-75 CNS
  GI50: 91.4 µM
  TGI: > 100 µM
HCC-2998 colon
  GI50: > 100 µM
  TGI: > 100 µM

## CS(=O)(=O)c1ccc2c(c1)C(=O)c1c-2n(CCCBr)c(=O)c2cc([N+](=O)[O-])ccc12
HL-60(TB) leukemia
  GI50: 3.37 µM
  TGI: > 100 µM
SR leukemia
  GI50: 1.06 µM
  TGI: > 100 µM
SN12C renal
  GI50: 6.88 µM
  TGI: > 100 µM
HCT-15 colon
  GI50: 48.9 µM
  TGI: > 100 µM
K-562 leukemia
  GI50: 5.15 µM
  TGI: > 100 µM
MDA-MB-231 breast
  GI50: 51.1 µM
  TGI: > 100 µM
SNB-75 CNS
  GI50: 12.8 µM
  TGI: 42.2 µM
HCC-2998 colon
  GI50: 24.8 µM
  TGI: > 100 µM

## Cc1ccc(S(=O)(=O)OCC(=O)Nc2ccc(C(=O)O)c(O)c2)cc1
HL-60(TB) leukemia
  GI50: 26.1 µM
  TGI: 193 µM
SR leukemia
  GI50: 0.195 µM
  TGI: 7.08 µM
SN12C renal
  GI50: 27.9 µM
  TGI: 105 µM
HCT-15 colon
  GI50: 38.8 µM
  TGI: 155 µM
K-562 leukemia
  GI50: 28.9 µM
  TGI: 120 µM
MDA-MB-231 breast
  GI50: 25.9 µM
  TGI: 99.6 µM
SNB-75 CNS
  GI50: 47.3 µM
  TGI: 185 µM
HCC-2998 colon
  GI50: 41 µM
  TGI: 88.1 µM

## CC(=O)n1nnc2ccc([N+](=O)[O-])cc21
HL-60(TB) leukemia
  TGI: > 100 µM
SR leukemia
  TGI: > 100 µM
SN12C renal
  TGI: > 100 µM
DMS 273 small cell lung
  TGI: > 100 µM
K-562 leukemia
  TGI: > 100 µM
DLD-1 colon
  TGI: > 100 µM
SNB-75 CNS
  TGI: > 100 µM

## O=C(NCCCl)NCCN1c2nc3ccccc3cc2Sc2cc3ccccc3nc21
HL-60(TB) leukemia
  GI50: 1.71 µM
  TGI: 5.12 µM
SR leukemia
  TGI: > 23.3 µM
SN12C renal
  GI50: 3.04 µM
  TGI: > 47.6 µM
HCT-15 colon
  GI50: 2.74 µM
  TGI: > 40 µM
K-562 leukemia
  GI50: 2.14 µM
  TGI: > 25 µM
MDA-MB-231 breast
  GI50: 2.71 µM
  TGI: 17.8 µM
SNB-75 CNS
  GI50: 0.558 µM
  TGI: 5.47 µM
HCC-2998 colon
  GI50: 1.68 µM
  TGI: 5.09 µM
